Assay results as given in ChEMBL document CHEMBL4609974, “Triazole derivatives and their antiplasmodial and antimalarial activities” (Eur J Med Chem, 2019).
Values after ≈ are worked out from the molar mass of the structure shown.

How the values were obtained:
Plasmodium falciparum [1] = assay: Antimalarial activity against chloroquine-resistant Plasmodium falciparum K1; format: functional, organism-based
Plasmodium falciparum [2] = assay: Antimalarial activity against chloroquine-resistant Plasmodium falciparum W2; format: functional, organism-based
Plasmodium falciparum [3] = assay: Antimalarial activity against chloroquine-sensitive Plasmodium falciparum D6; format: functional, organism-based
MRC5 = assay: Cytotoxicity against human MRC5 cells assessed as reduction in cell viability; format: functional
Staphylococcus aureus = assay: Antimicrobial activity against Staphylococcus aureus; format: functional
[4] = Selectivity index, ratio of CC50 for human MRC5 cells assessed as reduction in cell viability to MIC for chloroquine-resistant Plasmodium falciparum K1; format: toxicity; conditions: read-out: Selectivity Index
[5] = Selectivity index, ratio of CC50 for human MRC5 cells assessed as reduction in cell viability to MIC for […]; format: toxicity; conditions: read-out: Selectivity Index
Enterococcus faecalis = assay: Antimicrobial activity against Enterococcus faecalis; format: functional
Plasmodium falciparum [6] = assay: Antimalarial activity against chloroquine-sensitive Plasmodium falciparum 3D7; format: functional, organism-based
Plasmodium falciparum [7] = assay: Antimalarial activity against chloroquine-resistant Plasmodium falciparum […]; format: functional, organism-based
PC-3 = assay: Cytotoxicity against human PC3 cells assessed as reduction in cell viability; format: functional, cell-based
Plasmodium falciparum [8] = assay: Antimalarial activity against […] Plasmodium falciparum W2; format: functional, organism-based

| Structure (SMILES) | IC50 (Plasmodium falciparum [1]) | IC50 (Plasmodium falciparum [2]) | IC50 (Plasmodium falciparum [3]) | also measured |
| --- | --- | --- | --- | --- |
| Cc1ccc(-n2cc(CN(Cc3cn(-c4ccc(C)cc4)nn3)c3ccc4nc(-c5ccc(F)cc5)c(-c5ccc(F)cc5)nc4c3)nn2)cc1 | 9.76 to 3540 µM |  |  |  |
| O=[N+]([O-])c1ccc(OCc2cn(CCNc3ccnc4cc(Cl)ccc34)nn2)cc1 |  | 0.9 to 11.5 µM | 0.9 to 11.5 µM |  |
| Cc1ccc(OCc2cn(CCNc3ccnc4cc(Cl)ccc34)nn2)cc1C |  | 0.9 to 11.5 µM | 0.9 to 11.5 µM |  |
| OC1(c2cn(CCNc3ccnc4cc(Cl)ccc34)nn2)CCCCC1 |  | 0.9 to 11.5 µM | 0.9 to 11.5 µM |  |
| Clc1ccc(OCc2cn(CCNc3ccnc4cc(Cl)ccc34)nn2)cc1 |  | 0.9 to 11.5 µM | 0.9 to 11.5 µM |  |
| Clc1ccc2c(NCCn3cc(COc4ccc(Br)cc4)nn3)ccnc2c1 |  | 0.9 to 11.5 µM | 0.9 to 11.5 µM |  |
| CC[C@H]1OC(=O)C[C@@H](O)[C@H](C)C(O[C@@H]2O[C@H](C)[C@@H](O)[C@H](N(C)C)[C@H]2O)C(CC=O)C[C@@H](C)C(=N\OCCCc2cn(-c3cnc4ccccc4c3)nn2)/C=C/C(C)=C/[C@@H]1CO[C@@H]1O[C@H](C)[C@@H](O)[C@@H](OC)[C@H]1OC (stereo not given in full) | 0.73 µg/mL |  |  | CC50 (MRC5): 43 µg/mL (≈ 42 µM); MIC (Staphylococcus aureus): 0.5 to 1 µg/mL (≈ 0.489 to 0.977 µM); selectivity ratio [4]: 59; selectivity ratio [5]: 59; MIC (Enterococcus faecalis): 0.5 to 1 µg/mL (≈ 0.489 to 0.977 µM) |
| O=[N+]([O-])c1cccc(-n2cc(CN(Cc3cn(-c4cccc([N+](=O)[O-])c4)nn3)c3ccc4nc(-c5ccccc5)c(-c5ccccc5)nc4c3)nn2)c1 | 9.76 to 3540 µM |  |  |  |
| OCc1cn(CCCNc2ccnc3cc(Cl)ccc23)nn1 |  | 0.59 to 4.71 µM | 0.59 to 4.71 µM |  |
| Fc1ccc(-c2nc3ccc(NCc4cn(-c5ccc(F)cc5)nn4)cc3nc2-c2ccc(F)cc2)cc1 | 7.1 to 153 µM |  |  |  |
| COc1ccc2cc3[n+](cc2c1OCc1cn(-c2ccc(S(=O)(=O)N4CCCCC4)cc2)nn1)CCc1cc2c(cc1-3)OCO2 |  |  |  | IC50 (Plasmodium falciparum [6]): 0.142 to 28 µM |
| COc1cccc(-n2cc(CN(Cc3cn(-c4cccc(OC)c4)nn3)c3ccc4nc(-c5ccccc5)c(-c5ccccc5)nc4c3)nn2)c1 | 9.76 to 3540 µM |  |  |  |
| COc1cccc(-n2cc(CNc3ccc4nc(-c5ccc(F)cc5)c(-c5ccc(F)cc5)nc4c3)nn2)c1 | 7.1 to 153 µM |  |  |  |
| O=[N+]([O-])c1cccc(-n2cc(CN(Cc3cn(-c4cccc([N+](=O)[O-])c4)nn3)c3ccc4nc(-c5ccc(F)cc5)c(-c5ccc(F)cc5)nc4c3)nn2)c1 | 9.76 to 3540 µM |  |  |  |
| c1ccc(-c2nc3ccc(N(Cc4cn(-c5ccccc5)nn4)Cc4cn(-c5ccccc5)nn4)cc3nc2-c2ccccc2)cc1 | 9.76 to 3540 µM |  |  |  |
| Cc1ccc(-n2cc(CNc3ccc4nc(-c5ccc(F)cc5)c(-c5ccc(F)cc5)nc4c3)nn2)cc1 | 7.1 to 153 µM |  |  |  |
| Cc1ccc(OCc2cn(CCNc3ccnc4cc(Cl)ccc34)nn2)cc1 |  | 0.9 to 11.5 µM | 0.9 to 11.5 µM |  |
| COc1cccc(-n2cc(CN(Cc3cn(-c4cccc(OC)c4)nn3)c3ccc4nc(-c5ccc(F)cc5)c(-c5ccc(F)cc5)nc4c3)nn2)c1 | 9.76 to 3540 µM |  |  |  |
| Fc1ccc(-n2cc(CNc3ccc4nc(-c5ccccc5)c(-c5ccccc5)nc4c3)nn2)cc1 | 7.1 to 153 µM |  |  |  |
| COc1ccc(OCc2cn(CCNc3ccnc4cc(Cl)ccc34)nn2)cc1 |  | 0.9 to 11.5 µM | 0.9 to 11.5 µM |  |

| Structure (SMILES) | IC50 (Plasmodium falciparum [1]) | IC50 (Plasmodium falciparum [2]) | IC50 (Plasmodium falciparum [3]) | also measured |
| --- | --- | --- | --- | --- |
| COc1ccc2cc3[n+](cc2c1OCc1cn(-c2ccc(S(=O)(=O)Nc4ccc([N+](=O)[O-])cc4)cc2)nn1)CCc1cc2c(cc1-3)OCO2 |  |  |  | IC50 (Plasmodium falciparum [6]): 0.142 to 28 µM |
| CC(=O)c1ccc(OCc2cn(CCNc3ccnc4cc(Cl)ccc34)nn2)cc1 |  | 0.9 to 11.5 µM | 0.9 to 11.5 µM |  |
| Fc1ccc(-c2nc3ccc(NCc4cn(-c5cccc(C(F)(F)F)c5)nn4)cc3nc2-c2ccc(F)cc2)cc1 | 7.1 to 153 µM |  |  |  |
| COc1ccc(NS(=O)(=O)c2ccc(-n3cc(COc4c(OC)ccc5cc6[n+](cc45)CCc4cc5c(cc4-6)OCO5)nn3)cc2)cc1 |  |  |  | IC50 (Plasmodium falciparum [6]): 0.142 to 28 µM |
| Clc1ccc2c(NCCn3cc(COc4ccc5ccccc5c4)nn3)ccnc2c1 |  | 0.9 to 11.5 µM | 0.9 to 11.5 µM |  |
| FC(F)(F)c1cccc(-n2cc(CNc3ccc4nc(-c5ccccc5)c(-c5ccccc5)nc4c3)nn2)c1 | 7.1 to 153 µM |  |  |  |
| Cc1nnc(Cn2cc(C(=O)NNC(=S)Nc3ccccc3)c(=O)c3cc(F)c(Cl)cc32)n1N |  |  |  | IC50 (Plasmodium falciparum [7]): 3.91 µM |
| OC1(c2cn(CCCNc3ccnc4cc(Cl)ccc34)nn2)CCCCC1 |  | 0.59 to 4.71 µM | 0.59 to 4.71 µM |  |
| COc1ccc2cc3[n+](cc2c1OCc1cn(-c2ccc(S(=O)(=O)N4CCOCC4)cc2)nn1)CCc1cc2c(cc1-3)OCO2 |  |  |  | IC50 (Plasmodium falciparum [6]): 0.142 to 28 µM |
| COc1cccc(-n2cc(CNc3ccc4nc(-c5ccccc5)c(-c5ccccc5)nc4c3)nn2)c1 | 7.1 to 153 µM |  |  |  |
| COc1ccc2cc3[n+](cc2c1OCc1cn(-c2ccc(S(=O)(=O)Nc4ccc(Cl)cc4)cc2)nn1)CCc1cc2c(cc1-3)OCO2 |  |  |  | IC50 (Plasmodium falciparum [6]): 0.142 to 28 µM; IC50 (PC-3): 0.142 µM |
| O=C(c1cn(CCNc2ccnc3cc(Cl)ccc23)nn1)C1CCCCO1 (stereo not given) |  | 0.9 to 11.5 µM | 0.9 to 11.5 µM |  |
| Cc1cccc(OCc2cn(CCNc3ccnc4cc(Cl)ccc34)nn2)c1 |  | 0.9 to 11.5 µM | 0.9 to 11.5 µM |  |
| Cc1ccc(-n2cc(CNc3ccc4nc(-c5ccccc5)c(-c5ccccc5)nc4c3)nn2)cc1 | 7.1 to 153 µM |  |  |  |
| CC[C@H]1OC(=O)C[C@@H](O)[C@H](C)C(O[C@@H]2O[C@H](C)[C@@H](O)[C@H](N(C)C)[C@H]2O)C(CC=O)C[C@@H](C)C(=N\OCc2cn(-c3cnc4ccccc4c3)nn2)/C=C/C(C)=C/[C@@H]1CO[C@@H]1O[C@H](C)[C@@H](O)[C@@H](OC)[C@H]1OC (stereo not given in full) | 2 µg/mL |  |  | MIC (Staphylococcus aureus): 0.5 to 1 µg/mL (≈ 0.502 to 1 µM); MIC (Enterococcus faecalis): 0.5 to 1 µg/mL (≈ 0.502 to 1 µM) |
| COc1ccc2cc3[n+](cc2c1OCc1cn(-c2ccc(S(=O)(=O)Nc4ccc(Br)cc4)cc2)nn1)CCc1cc2c(cc1-3)OCO2 |  |  |  | IC50 (Plasmodium falciparum [6]): 0.142 to 28 µM |
| Fc1ccc(-n2cc(CN(Cc3cn(-c4ccc(F)cc4)nn3)c3ccc4nc(-c5ccccc5)c(-c5ccccc5)nc4c3)nn2)cc1 | 9.76 to 3540 µM |  |  |  |
| O=C(CSc1nnc(Cc2ccccc2)n1-c1ccc(Cl)cc1)N1CCc2ccccc21 |  | 48.8 µM |  | IC50 (Plasmodium falciparum [8]): 48.8 µM |
| Cc1ccc(-n2cc(CN(Cc3cn(-c4ccc(C)cc4)nn3)c3ccc4nc(-c5ccccc5)c(-c5ccccc5)nc4c3)nn2)cc1 | 9.76 to 3540 µM |  |  |  |
| Fc1ccc(-c2nc3ccc(N(Cc4cn(-c5cccc(C(F)(F)F)c5)nn4)Cc4cn(-c5cccc(C(F)(F)F)c5)nn4)cc3nc2-c2ccc(F)cc2)cc1 | 9.76 to 3540 µM |  |  |  |

| Structure (SMILES) | IC50 (Plasmodium falciparum [1]) | IC50 (Plasmodium falciparum [2]) | IC50 (Plasmodium falciparum [3]) | also measured |
| --- | --- | --- | --- | --- |
| c1ccc(-c2nc3ccc(NCc4cn(-c5ccccc5)nn4)cc3nc2-c2ccccc2)cc1 | 7.1 to 153 µM |  |  |  |
| CC(C)c1ccc(OCc2cn(CCNc3ccnc4cc(Cl)ccc34)nn2)cc1 |  | 0.9 to 11.5 µM | 0.9 to 11.5 µM |  |
| Clc1ccc2c(NCCn3cc(COc4c(Cl)cccc4Cl)nn3)ccnc2c1 |  | 0.9 to 11.5 µM | 0.9 to 11.5 µM |  |
| C[C@@H]1CC[C@H]2[C@@H](C)C(=O)O[C@@H]3O[C@@]4(C)CC[C@@H]1[C@]32OO4 [ARTEMISININ] |  | 0.25 µM | 0.03 µM |  |
| Fc1ccc(-c2nc3ccc(N(Cc4cn(-c5ccccc5)nn4)Cc4cn(-c5ccccc5)nn4)cc3nc2-c2ccc(F)cc2)cc1 | 9.76 to 3540 µM |  |  |  |
| COc1ccc2cc3[n+](cc2c1OCc1cn(-c2ccc(S(=O)(=O)Nc4ccc(F)cc4)cc2)nn1)CCc1cc2c(cc1-3)OCO2 |  |  |  | IC50 (Plasmodium falciparum [6]): 0.142 to 28 µM |
| Clc1ccc2c(NCCCn3cc(COc4ccc5ccccc5c4)nn3)ccnc2c1 |  | 0.59 to 4.71 µM | 0.59 to 4.71 µM |  |
| Cc1cc(OCc2cn(CCNc3ccnc4cc(Cl)ccc34)nn2)ccc1Cl |  | 0.9 to 11.5 µM | 0.9 to 11.5 µM |  |
| COc1ccc2cc3[n+](cc2c1OCc1cn(-c2ccc(S(=O)(=O)Nc4ccccc4)cc2)nn1)CCc1cc2c(cc1-3)OCO2 |  |  |  | IC50 (Plasmodium falciparum [6]): 0.142 to 28 µM |
| CC(=O)c1ccc(OCc2cn(CCCNc3ccnc4cc(Cl)ccc34)nn2)cc1 |  | 1.14 µM | 0.59 µM |  |
| O=[N+]([O-])c1cccc(-n2cc(CNc3ccc4nc(-c5ccc(F)cc5)c(-c5ccc(F)cc5)nc4c3)nn2)c1 | 7.1 to 153 µM |  |  |  |
| Fc1ccc(-c2nc3ccc(N(Cc4cn(-c5ccc(F)cc5)nn4)Cc4cn(-c5ccc(F)cc5)nn4)cc3nc2-c2ccc(F)cc2)cc1 | 9.76 to 3540 µM |  |  |  |
| COc1ccc2cc3[n+](cc2c1OCc1cn(-c2ccc(S(N)(=O)=O)cc2)nn1)CCc1cc2c(cc1-3)OCO2 |  |  |  | IC50 (Plasmodium falciparum [6]): 0.142 to 28 µM |
| Cc1nnc(Cn2cc(C(=O)NNC(=O)Nc3ccccc3)c(=O)c3cc(F)c(Cl)cc32)n1N |  |  |  | IC50 (Plasmodium falciparum [7]): 3.89 µM |
| Fc1ccc(-c2nc3ccc(NCc4cn(-c5ccccc5)nn4)cc3nc2-c2ccc(F)cc2)cc1 | 7.1 to 153 µM |  |  |  |
| FC(F)(F)c1cccc(-n2cc(CN(Cc3cn(-c4cccc(C(F)(F)F)c4)nn3)c3ccc4nc(-c5ccccc5)c(-c5ccccc5)nc4c3)nn2)c1 | 9.76 to 3540 µM |  |  |  |
| O=[N+]([O-])c1cccc(-n2cc(CNc3ccc4nc(-c5ccccc5)c(-c5ccccc5)nc4c3)nn2)c1 | 7.1 to 153 µM |  |  |  |
| OCc1cn(CCNc2ccnc3cc(Cl)ccc23)nn1 |  | 0.9 to 11.5 µM | 0.9 to 11.5 µM |  |
| COc1ccc2cc3[n+](cc2c1OCc1cn(-c2ccc(S(=O)(=O)N4CCN(C)CC4)cc2)nn1)CCc1cc2c(cc1-3)OCO2 |  |  |  | IC50 (Plasmodium falciparum [6]): 0.142 to 28 µM |
| O=C(CSc1nnc(Cc2ccccc2)n1-c1ccccc1)N1CCc2ccccc21 |  | 4.59 µM |  | IC50 (Plasmodium falciparum [8]): 4.59 µM |
